Like-named read-outs stand apart in the source and are kept apart here.
Assay: Caco-2 permeability assay
Type: in vitro ADME
Details: human; for Papp A→B at 2 h, 5 μM / Papp B→A at 2 h, 5 μM: Caco-2, 5 μM
Experimental: Caco-2 cells were cultured in 10% FBS DMEM for 14-21 days before assays. […] HBSS was added to the opposite chamber. After 2 hours incubation at 37°C, samples were analyzed by LC-MS/MS. Fluorescein leakage was tested by adding 100 μM fluorescein to the upper chamber and measuring fluorescence after 30 minutes.

[1] = Caco-2, Caco-2, B-A, read-out: Recovery B-A%

SMILES | recovery at 2 h, 5 μM (Caco-2, Caco-2, A-B, read-out: Recovery A-B%) [%] | recovery at 2 h, 5 μM [1] [%] | Papp A→B at 2 h, 5 μM [×10⁻⁶ cm/s] | Papp B→A at 2 h, 5 μM [×10⁻⁶ cm/s]
C[C@H]1O[C@@H](O[C@H]2[C@@H](O)C[C@H](O[C@H]3[C@@H](O)C[C@H](O[C@H]4CC[C@@]5(C)[C@H](CC[C@@H]6[C@@H]5C[C@@H](O)[C@]5(C)[C@@H](C7=CC(=O)OC7)CC[C@]65O)C4)O[C@@H]3C)O[C@@H]2C)C[C@H](O)[C@@H]1O [Digoxin] | 78.5 | 101 | 0.9 | 26.1
CC(C)NCC(O)COc1cccc2ccccc12 (stereo not shown) [Propraolol, Propranolol] |  | 84.9 | 22.3 | 14.7
